target: T1, GABAA receptors composed of the α1β2γ2 subunits (GABRA1/GABRB2/GABRG2) (Homo sapiens, UniProt P14867+P47870); experiment: Two Electrode Voltage Clamp (TEVC), GABA receptor potentiation in Xenopus laevis oocytes, α1β2γ2; type: cell-based; details: 10 μM compound, 10 μM GABA, read-out: GABA (α1β2γ2) % efficacy at 10 μM
T1 construct: expressed in transfected cells; host or cells: Xenopus laevis oocytes, injected (ratio 1:1:1)
Method: The Two Electrode Voltage Clamp (TEVC) technique was used to investigate the effects of compounds at a concentration of 10 μM on GABAA receptors composed of the α1β2γ2 or α4β3δ subunits expressed in oocytes from the Xenopus laevis. GABA-evoked currents were recorded from oocytes that expressed the GABA receptors and the modulatory effects of the test items on these currents were investigated.
Ovaries were harvested from Xenopus laevis females that had been deeply anesthetized by cooling at 4° C. and immersion in Tricaine methanesulfonate (MS-222 at a concentration of 150 mg/L) in sodium bicarbonate (300 mg/L). Once anesthetized the animal was decapitated and pithed following the rules of animal rights from the Geneva canton. A small piece of ovary was isolated for immediate preparation while the remaining part was placed at 4° C. in a sterile Barth solution containing in mM NaCl 88, KCl 1, NaHCO3 2.4, HEPES 10, MgSO4·7H2O 0.82, Ca(NO3)2·4H2O 0.33, CaCl2·6H2O 0.41, at pH 7.4, and supplemented with 20 μg/ml of kanamycin, 100 unit/ml penicillin and 100 μg/ml streptomycin. All recordings were performed at 18° C. and cells were super-fused with medium containing in mM: NaCl 82.5, KCl 2.5, HEPES 5, CaCl2·2H2O, ·6H2O 1, pH 7.4.
Plasmids containing the RNAs of the human GABRA1/GABRB2/GABRG2 and GABRA4/GABRB3/GABRD genes were injected into oocytes using a proprietary automated injection device (Hogg el al., J. Neurosci. Methods, (2008) 169: 65-75). These genes encode for the α1β2γ2 and α4β3δ GABAA subunits respectively. Receptor expression was assessed using electrophysiology at least two days later. The ratio of RNA injection for α1β2γ2 was 1:1:1 and for α4β3δ was 5:1:5. Electrophysiological recordings were made using an automated process equipped with standard TEVC and data were captured and analyzed using a proprietary data acquisition and analysis software running under Matlab (Mathworks Inc.). The membrane potential of the oocytes was maintained at −80 mV throughout the experiments. To explore the effects of proprietary compounds, currents were evoked by applying 10 μM (α1β2γ2) or 3 μM (α4β3δ) GABA for 30 s. These concentrations approximated the EC50 concentration of GABA at each receptor subtype. Oocytes were then re-exposed to GABA again for 30 s. 15 s after beginning the GABA application, test article was co-applied at a concentration of 10 μM for 15 s. Potentiation of the peak current was assessed. Data was filtered at 10 Hz, captured at 100 Hz and analyzed using proprietary data acquisition and analysis software running under Matlab (Mathworks Inc.). For statistical analysis values were computed either with Excel (Microsoft) or Matlab (mathworks Inc.). To obtain mean measurements with standard deviations, all experiments were carried out using at least three cells.

T1 sequence (P14867 28-456): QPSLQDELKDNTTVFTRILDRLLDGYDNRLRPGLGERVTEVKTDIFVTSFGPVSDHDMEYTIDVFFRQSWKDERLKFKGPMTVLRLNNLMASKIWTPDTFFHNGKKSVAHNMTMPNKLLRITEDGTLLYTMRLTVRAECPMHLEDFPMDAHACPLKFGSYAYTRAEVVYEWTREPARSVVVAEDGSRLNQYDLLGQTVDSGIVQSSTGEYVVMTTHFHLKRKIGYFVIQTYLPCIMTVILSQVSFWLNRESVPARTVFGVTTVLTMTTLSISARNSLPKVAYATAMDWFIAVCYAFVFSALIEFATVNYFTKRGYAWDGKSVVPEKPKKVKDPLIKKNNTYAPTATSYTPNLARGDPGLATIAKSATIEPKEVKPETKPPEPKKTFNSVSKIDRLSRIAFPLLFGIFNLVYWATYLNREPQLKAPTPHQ
T1 sequence (P47870 26-512): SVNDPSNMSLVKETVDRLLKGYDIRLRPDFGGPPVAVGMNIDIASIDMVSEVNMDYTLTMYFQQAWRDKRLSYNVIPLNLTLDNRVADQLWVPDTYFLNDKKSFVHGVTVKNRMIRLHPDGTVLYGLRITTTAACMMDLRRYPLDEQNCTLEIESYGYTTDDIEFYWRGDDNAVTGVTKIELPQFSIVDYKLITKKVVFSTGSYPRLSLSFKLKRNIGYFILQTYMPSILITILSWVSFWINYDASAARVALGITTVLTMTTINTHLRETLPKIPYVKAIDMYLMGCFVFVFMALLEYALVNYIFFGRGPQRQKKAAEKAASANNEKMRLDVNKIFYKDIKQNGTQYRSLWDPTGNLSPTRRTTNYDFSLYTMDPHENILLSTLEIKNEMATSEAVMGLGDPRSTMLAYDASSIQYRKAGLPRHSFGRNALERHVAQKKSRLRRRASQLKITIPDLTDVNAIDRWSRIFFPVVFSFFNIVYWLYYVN
T1 sequence (P18507 40-475 partner): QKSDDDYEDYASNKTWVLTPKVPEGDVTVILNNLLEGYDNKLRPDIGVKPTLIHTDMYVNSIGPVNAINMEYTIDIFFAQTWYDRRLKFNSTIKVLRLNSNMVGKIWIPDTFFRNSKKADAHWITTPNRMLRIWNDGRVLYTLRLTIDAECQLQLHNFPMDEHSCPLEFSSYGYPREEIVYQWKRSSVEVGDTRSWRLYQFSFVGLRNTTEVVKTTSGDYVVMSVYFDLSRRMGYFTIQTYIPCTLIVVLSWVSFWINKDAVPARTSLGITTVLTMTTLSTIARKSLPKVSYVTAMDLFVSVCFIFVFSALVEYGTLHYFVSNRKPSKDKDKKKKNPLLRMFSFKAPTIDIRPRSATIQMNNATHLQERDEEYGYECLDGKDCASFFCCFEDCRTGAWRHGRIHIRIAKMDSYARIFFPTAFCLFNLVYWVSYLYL

| Structure (SMILES) | Emax at 10 µM [%] |
| --- | --- |
| COC[C@]12CC[C@@](C)(O)C[C@@H]1CC[C@H]1[C@@H]3CC[C@H](C(=O)Cn4nnc(C)n4)[C@@]3(C)CC[C@@H]12 [Compound 17] | 1000 to 1500 |
| COC[C@]12CC[C@@](C)(O)C[C@@H]1CC[C@H]1[C@@H]3CC[C@H](C(=O)Cn4cc(C)cn4)[C@@]3(C)CC[C@@H]12 [Compound 20] | 500 to 1000 |
| COC[C@]12CC[C@@](C)(O)C[C@@H]1CC[C@H]1[C@@H]3CC[C@H](C(=O)Cn4cnc(C)c4)[C@@]3(C)CC[C@@H]12 [Compound 23] | 500 to 1000 |
| COC[C@]12CC[C@@](C)(O)C[C@@H]1CC[C@H]1[C@@H]3CC[C@H](C(=O)Cn4cc(S(C)(=O)=O)cn4)[C@@]3(C)CC[C@@H]12 [Compound 24] | 500 to 1000 |
| CCOC[C@]12CC[C@@](C)(O)C[C@@H]1CC[C@H]1[C@@H]3CC[C@H](C(=O)Cn4nnc(C)n4)[C@@]3(C)CC[C@@H]12 [Compound 25] | 500 to 1000 |

target: [35S]-TBPS binding in rat brain cortical membranes; experiment: Steroid inhibition of [35S]-TBPS binding, rat brain cortical membranes; details: 3 nM [35S]-TBPS, in the presence of 5 μM GABA, read-out: 35S-TBPS Radioligand Displacement (IC50)
Method: TBPS binding assays using rat brain cortical membranes in the presence of 5 μM GABA has been described (Gee et al, J. Pharmacol. Exp. Ther. 1987, 241, 346-353; Hawkinson et al, Mol. Pharmacol. 1994, 46, 977-985; Lewin, A. H et al., Mol. Pharmacol. 1989, 35, 189-194).
Briefly, cortices are rapidly removed following decapitation of carbon dioxide-anesthetized Sprague-Dawley rats (200-250 g). The cortices are homogenized in 10 volumes of ice-cold 0.32 M sucrose using a glass/teflon homogenizer and centrifuged at 1500×g for 10 min at 4° C. The resultant supernatants are centrifuged at 10,000×g for 20 min at 4° C. to obtain the P2 pellets. The P2 pellets are resuspended in 200 mM NaCl/50 mM Na—K phosphate pH 7.4 buffer and centrifuged at 10,000×g for 10 min at 4° C. This washing procedure is repeated twice and the pellets are resuspended in 10 volumes of buffer. Aliquots (100 μL) of the membrane suspensions are incubated with 3 nM [^35S]-TBPS and 5 μL aliquots of test drug dissolved in dimethyl sulfoxide (DMSO) (final 0.5%) in the presence of 5 μM GABA. The incubation is brought to a final volume of 1.0 mL with buffer. Nonspecific binding is determined in the presence of 2 μM unlabeled TBPS and ranged from 15 to 25%. Following a 90 min incubation at room temp, the assays are terminated by filtration through glass fiber filters (Schleicher and Schuell No. 32) using a cell harvester (Brandel) and rinsed three times with ice-cold buffer. Filter bound radioactivity is measured by liquid scintillation spectrometry. Non-linear curve fitting of the overall data for each drug averaged for each concentration is done using Prism (GraphPad). […] The concentration of test compound producing 50% inhibition (IC50) of specific binding and the maximal extent of inhibition (Imax) are determined for the individual experiments with the same model used for the overall data and then the mean±SEM.s of the individual experiments are calculated.
Various compounds are or can be screened to determine their potential as modulators of [^35S]-TBPS binding in vitro. These assays are or can be performed in accordance with the above discussed procedures.

| Structure (SMILES) | IC50 [nM] |
| --- | --- |
| COC[C@]12CC[C@@](C)(O)C[C@@H]1CC[C@H]1[C@@H]3CC[C@H](C(=O)Cn4cccn4)[C@@]3(C)CC[C@@H]12 [Compound 2] | > 500 |
| COC[C@]12CC[C@@](C)(O)C[C@@H]1CC[C@H]1[C@@H]3CC[C@H](C(=O)CN4CCOCC4)[C@@]3(C)CC[C@@H]12 [Compound 4] | > 500 |
| COC[C@]12CC[C@@](C)(O)C[C@@H]1CC[C@H]1[C@@H]3CC[C@H](C(=O)CN4CCN(C(C)=O)CC4)[C@@]3(C)CC[C@@H]12 [Compound 5] | > 500 |
| CC(=O)N1CCN(CC(=O)[C@H]2CC[C@H]3[C@@H]4CC[C@H]5C[C@](C)(O)CC[C@]5(CO)[C@H]4CC[C@]23C)CC1 [Compound 6] | > 500 |
| C[C@@]1(O)CC[C@@]2(CO)[C@@H](CC[C@H]3[C@@H]4CC[C@H](C(=O)CN5CCN(S(C)(=O)=O)CC5)[C@@]4(C)CC[C@@H]32)C1 [Compound 7] | > 500 |
| C[C@@]1(O)CC[C@@]2(CO)[C@@H](CC[C@H]3[C@@H]4CC[C@H](C(=O)CN5CCOCC5)[C@@]4(C)CC[C@@H]32)C1 [Compound 9] | > 500 |
| C[C@@]1(O)CC[C@@]2(CO)[C@@H](CC[C@H]3[C@@H]4CC[C@H](C(=O)Cn5nccn5)[C@@]4(C)CC[C@@H]32)C1 [Compound 10] | > 500 |
| C[C@@]1(O)CC[C@@]2(CO)[C@@H](CC[C@H]3[C@@H]4CC[C@H](C(=O)Cn5cccn5)[C@@]4(C)CC[C@@H]32)C1 [Compound 11] | > 500 |
| C[C@@]1(O)CC[C@@]2(CO)[C@@H](CC[C@H]3[C@@H]4CC[C@H](C(=O)Cn5ccnn5)[C@@]4(C)CC[C@@H]32)C1 [Compound 12] | > 500 |
| COC[C@]12CC[C@@](C)(O)C[C@@H]1CC[C@H]1[C@@H]3CC[C@H](C(=O)Cn4nnc(C)n4)[C@@]3(C)CC[C@@H]12 [Compound 17] | > 500 |
| COC[C@]12CC[C@@](C)(O)C[C@@H]1CC[C@H]1[C@@H]3CC[C@H](C(=O)Cn4cnc(C)c4)[C@@]3(C)CC[C@@H]12 [Compound 23] | 100 to 500 |
| COC[C@]12CC[C@@](C)(O)C[C@@H]1CC[C@H]1[C@@H]3CC[C@H](C(=O)Cn4cc(S(C)(=O)=O)cn4)[C@@]3(C)CC[C@@H]12 [Compound 24] | 100 to 500 |
| CCOC[C@]12CC[C@@](C)(O)C[C@@H]1CC[C@H]1[C@@H]3CC[C@H](C(=O)Cn4nnc(C)n4)[C@@]3(C)CC[C@@H]12 [Compound 25] | 10 to 50 |
| COC[C@]12CC[C@@](C)(O)C[C@H]1CC[C@H]1[C@@H]3CC[C@H](C(=O)Cn4cc(C)cn4)[C@@]3(C)CC[C@@H]12 [Compound 28] | 50 to 100 |
| COC[C@]12CC[C@@](C)(O)C[C@@H]1CC[C@H]1[C@@H]3CC[C@H](C(=O)Cn4nc5ccccc5n4)[C@@]3(C)CC[C@@H]12 [Compound 40] | 10 to 50 |
| COC[C@]12CC[C@@H](O)C[C@@H]1CC[C@H]1[C@@H]3CC[C@H](C(=O)Cn4nccn4)[C@@]3(C)CC[C@@H]12 [Compound 90] | 50 to 100 |

| Structure (SMILES) | IC50 [nM] |
| --- | --- |
| COC[C@]12CC[C@@H](O)C[C@@H]1CC[C@H]1[C@@H]3CC[C@H](C(=O)Cn4ccnn4)[C@@]3(C)CC[C@@H]12 [Compound 91] | 100 to 500 |
| CCOC(=O)c1ccn(CC(=O)[C@H]2CC[C@H]3[C@@H]4CC[C@H]5C[C@H](O)CC[C@]5(COC)[C@H]4CC[C@]23C)n1 [Compound 92] | 10 to 50 |
| COC[C@]12CC[C@@H](O)C[C@@H]1CC[C@H]1[C@@H]3CC[C@H](C(=O)Cn4cc(C)cn4)[C@@]3(C)CC[C@@H]12 [Compound 93] | 100 to 500 |
| COC[C@]12CC[C@@](C)(O)C[C@@H]1CC[C@H]1[C@@H]3CC[C@H](C(=O)Cn4nnc5c(F)c(F)ccc54)[C@@]3(C)CC[C@@H]12 [Compound 114] | 10 to 50 |
| COC[C@]12CC[C@@](C)(O)C[C@@H]1CC[C@H]1[C@@H]3CC[C@H](C(=O)Cn4nnc5ccc(F)c(F)c54)[C@@]3(C)CC[C@@H]12 [Compound 115] | 10 to 50 |
| COC[C@]12CC[C@@](C)(O)C[C@@H]1CC[C@H]1[C@@H]3CC[C@H](C(=O)Cn4cc(C#N)cn4)[C@@]3(C)CC[C@@H]12 [Compound 127] | 10 to 50 |
| COC[C@]12CC[C@@](C)(O)C[C@@H]1CC[C@H]1[C@@H]3CC[C@H](C(=O)Cn4nc5ccc(F)c(F)c5n4)[C@@]3(C)CC[C@@H]12 [Compound 128] | < 10 |
| COC[C@]12CC[C@@](C)(O)C[C@@H]1CC[C@H]1[C@@H]3CC[C@H](C(=O)Cn4nnc5c(F)c(Cl)ccc54)[C@@]3(C)CC[C@@H]12 [Compound 138] | 100 to 500 |
| COC[C@]12CC[C@@](C)(O)C[C@@H]1CC[C@H]1[C@@H]3CC[C@H](C(=O)Cn4nnc5ccc(OC(F)(F)F)cc54)[C@@]3(C)CC[C@@H]12 [Compound 144] | 50 to 100 |
| COC[C@]12CC[C@@](C)(O)C[C@@H]1CC[C@H]1[C@@H]3CC[C@H](C(=O)Cn4nnc5cc(OC(F)(F)F)ccc54)[C@@]3(C)CC[C@@H]12 [Compound 146] | 50 to 100 |
| COC[C@]12CC[C@@](C)(O)C[C@@H]1CC[C@H]1[C@@H]3CC[C@H](C(=O)Cn4cc5nccnc5n4)[C@@]3(C)CC[C@@H]12 [Compound 154] | > 500 |
| COC[C@]12CC[C@@](C)(O)C[C@@H]1CC[C@H]1[C@@H]3CC[C@H](C(=O)Cn4ncc5nccnc54)[C@@]3(C)CC[C@@H]12 [Compound 155] | 50 to 100 |
| COC[C@]12CC[C@@](C)(O)C[C@H]1CC[C@H]1[C@@H]3CC[C@H](C(=O)Cn4nnc5c(F)cccc54)[C@@]3(C)CC[C@@H]12 [Compound 157] | 10 to 50 |
| COC[C@]12CC[C@](O)(C(F)(F)F)C[C@H]1CC[C@H]1[C@@H]3CC[C@H](C(=O)Cn4nnc5c(F)c(F)ccc54)[C@@]3(C)CC[C@@H]12 [Compound 161] | 100 to 500 |
| COC[C@]12CC[C@](O)(C(F)(F)F)C[C@H]1CC[C@H]1[C@@H]3CC[C@H](C(=O)Cn4nc5ccc(F)c(F)c5n4)[C@@]3(C)CC[C@@H]12 [Compound 162] | 100 to 500 |
| CCOC[C@]12CC[C@@](C)(O)C[C@@H]1CC[C@H]1[C@@H]3CC[C@H](C(=O)Cn4cc(C#N)cn4)[C@@]3(C)CC[C@@H]12 [Compound 171] | 10 to 50 |
